Where two headings read alike, the source gives them in different places.
Assays:
urease enzyme = urease enzyme (Canavalia ensiformis, UniProt P07374); test: Mechanistic studies (Lineweaver-Burk, secondary replot, Dixon plot); assay type: biochemical; conditions: Lineweaver-Burk and Dixon plots; substrate 0.5-4.0 mM; Ropinirole 5, 10, 20 μM
Protocol: Mechanistic studies were carried out to determine the mechanism of inhibition of 4-[2-(dipropylamino)ethyl]-1,3-dihydro-2H-indol-2-one ( Ropinirole) of the enzyme urease. In brief, urease enzyme solution (1 U/200 μL) was incubated with different concentrations of Ropinirole for 15 min at 30° C. The reaction was then initiated by adding different concentrations of substrate (0.5-4.0 mM), then phenol and alkali reagent were added and change in absorbance was measured for 50 minutes at 630 nm on microtitre plate reader (SpectraMax M5, Molecular Devices, Calif., USA). The Lineweaver-Burk plot was used to determine the type of inhibition, while secondary replot of Lineweaver-Burk plot and Dixon plots were used for the determination and confirmation of dissociation constants (Ki).
The EZ-Fit enzyme kinetics program (Perrella Scientific Inc., Amherst, USA) was employed to calculate the IC50 values. All graphs were plotted by using Grafit 7 (Erithacus Software Limited, UK). Values of the correlation coefficients, intercepts, slopes, and their standard errors were calculated by the linear regression analysis by using the same program. Each point in the constructed graphs represents the mean of the three experiments.

[1] = biological target: Jack bean (Canavalia ensiformis) urease (Canavalia ensiformis, UniProt P07374); test: biochemical
Jack bean (Canavalia ensiformis) urease, sequence (P07374 whole entry, looked up): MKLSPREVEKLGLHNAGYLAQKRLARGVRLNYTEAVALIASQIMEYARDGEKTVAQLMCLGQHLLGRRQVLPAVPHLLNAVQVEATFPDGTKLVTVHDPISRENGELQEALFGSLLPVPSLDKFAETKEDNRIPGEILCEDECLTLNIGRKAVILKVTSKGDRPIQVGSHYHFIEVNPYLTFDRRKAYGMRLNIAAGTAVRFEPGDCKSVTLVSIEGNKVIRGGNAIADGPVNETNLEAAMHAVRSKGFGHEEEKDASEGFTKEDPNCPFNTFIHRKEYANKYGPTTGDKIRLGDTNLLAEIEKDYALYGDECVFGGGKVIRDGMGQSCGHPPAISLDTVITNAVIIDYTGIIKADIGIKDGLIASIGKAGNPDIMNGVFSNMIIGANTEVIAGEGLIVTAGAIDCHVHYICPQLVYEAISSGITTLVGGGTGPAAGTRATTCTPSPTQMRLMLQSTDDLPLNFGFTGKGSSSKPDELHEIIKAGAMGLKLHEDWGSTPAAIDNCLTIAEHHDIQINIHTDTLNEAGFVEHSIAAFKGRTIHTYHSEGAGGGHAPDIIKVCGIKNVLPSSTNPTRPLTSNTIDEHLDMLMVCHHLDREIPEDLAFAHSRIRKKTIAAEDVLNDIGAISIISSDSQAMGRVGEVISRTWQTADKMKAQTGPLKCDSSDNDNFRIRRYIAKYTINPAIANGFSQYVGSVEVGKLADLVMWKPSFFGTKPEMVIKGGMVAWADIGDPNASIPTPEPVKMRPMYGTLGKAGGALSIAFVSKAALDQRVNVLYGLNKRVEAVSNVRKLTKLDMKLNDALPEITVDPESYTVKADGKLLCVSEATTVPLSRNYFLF
From the text: Each point in the constructed graphs represents the mean of the three experiments.

urease enzyme, sequence (P07374 whole entry, looked up): as above

Compound	type of inhibition (urease enzyme)	IC50 [1] [µM]	IC50 ([1]; Jack bean urease, 100 mM urea, pH 6.8, 30° C., 15 min, triplicate, read-out: IC50 (urease inhibition)) [µM]
CCCN(CCC)CCc1cccc2c1CC(=O)N2 [Ropinirole, 4-[2-(Dipropylamino)ethyl]-1,3-dihydro-2H-indol-2-one]	mixed-type of inhibitor	11.7 ± 0.46	–
CC(=O)NO [acetohydroxamic acid]	–	–	41.5 ± 1.5

Reference: patent US20170252323A1, “4-[2-(Dipropylamino)ethyl]-1,3-dihydro-2H-indol-2-one (Ropinirole) a New Inhibitor of Jack bean Urease Enzyme: An Example of Drug Repurposing” (priority 2016, published 2017)
